These results are taken from PubChem BioAssay AID1259407 (Chemical Carcinogenesis Research Information System (CCRIS), 2018).

In the data set the test system is CCRIS mutagenicity, Ames/micronucleus/aberration tests. Kind of data set: CCRIS mutagenicity studies.
Where [1] appears, read: Test System: AMES SALMONELLA TYPHIMURIUM, Strain/Indicator: TA98, Metabolic Activation: HAMSTER, LIVER, S-9, AROCLOR 1254, Method: STANDARD PLATE.
[2] abbreviates: Test System: AMES SALMONELLA TYPHIMURIUM, Strain/Indicator: TA98, Metabolic Activation: NONE, Method: STANDARD PLATE.
Setting [3] is: Test System: AMES SALMONELLA TYPHIMURIUM, Strain/Indicator: TA98, Metabolic Activation: RAT, LIVER, S-9, AROCLOR 1254, Method: STANDARD PLATE.
The mark [4] stands for this setting: Test System: AMES SALMONELLA TYPHIMURIUM, Strain/Indicator: TA100, Metabolic Activation: HAMSTER, LIVER, S-9, AROCLOR 1254, Method: STANDARD PLATE.
Setting [5] is: Test System: AMES SALMONELLA TYPHIMURIUM, Strain/Indicator: TA100, Metabolic Activation: NONE, Method: STANDARD PLATE.
Where [6] appears, read: Test System: AMES SALMONELLA TYPHIMURIUM, Strain/Indicator: TA100, Metabolic Activation: RAT, LIVER, S-9, AROCLOR 1254, Method: STANDARD PLATE.
The mark [7] stands for this setting: Test System: AMES SALMONELLA TYPHIMURIUM, Strain/Indicator: TA1535, Metabolic Activation: HAMSTER, LIVER, S-9, AROCLOR 1254, Method: STANDARD PLATE.
The mark [8] stands for this setting: Test System: AMES SALMONELLA TYPHIMURIUM, Strain/Indicator: TA1535, Metabolic Activation: NONE, Method: STANDARD PLATE.
Where [9] appears, read: Test System: AMES SALMONELLA TYPHIMURIUM, Strain/Indicator: TA1535, Metabolic Activation: RAT, LIVER, S-9, AROCLOR 1254, Method: STANDARD PLATE.
Where [10] appears, read: Test System: AMES SALMONELLA TYPHIMURIUM, Strain/Indicator: TA1537, Metabolic Activation: HAMSTER, LIVER, S-9, AROCLOR 1254, Method: STANDARD PLATE.
[11] abbreviates: Test System: AMES SALMONELLA TYPHIMURIUM, Strain/Indicator: TA1537, Metabolic Activation: NONE, Method: STANDARD PLATE.
[12] abbreviates: Test System: AMES SALMONELLA TYPHIMURIUM, Strain/Indicator: TA1537, Metabolic Activation: RAT, LIVER, S-9, AROCLOR 1254, Method: STANDARD PLATE.
The mark [13] stands for this setting: Test System: MOUSE LYMPHOMA, Strain/Indicator: L5178Y (TK+/TK-), Metabolic Activation: NONE, Method: SUSPENSION/PLATE.
Setting [14] is: Test System: MOUSE LYMPHOMA, Strain/Indicator: L5178Y (TK+/TK-), Metabolic Activation: RAT, LIVER, S-9, AROCLOR 1254, Method: SUSPENSION/PLATE.

The source made the active and inactive calls. No rule for the calls is given here.

Turning to `CCCCC(CC)COP(=O)(OCC(CC)CCCC)OCC(CC)CCCC` (configuration not stated), the mutagenic call is “inactive; negative” (End Point: IN VITRO CHROMOSOMAL ABERRATIONS, Test System: CHO CELLS, Metabolic Activation: NONE); “inactive; negative” (End Point: IN VITRO CHROMOSOMAL ABERRATIONS, Test System: CHO CELLS, Metabolic Activation: RAT, LIVER, S-9, AROCLOR 1254); “inactive; negative” under setting [1]; “inactive; negative” under setting [2]; “inactive; negative” under setting [3]; “inactive; negative” under setting [4]. For the same molecule, the mutagenic call under setting [5] was “inactive; negative”; the mutagenic call under setting [6] was “inactive; negative”; the mutagenic call under setting [7] was “inactive; negative”; the mutagenic call under setting [8] is “inactive; negative”; the mutagenic call under setting [9] was “inactive; negative”; the mutagenic call under setting [10] is “inactive; negative”. Further, the mutagenic call reads like this: under setting [11], “inactive; negative”; under setting [12], “inactive; negative”.
For `CC[C@H](C)[C@@H]([C@@H](CC(=O)N1CCC[C@H]1[C@H](OC)[C@@H](C)C(=O)N[C@@H](Cc1ccccc1)c1nccs1)OC)N(C)C(=O)[C@@H](NC(=O)[C@H](C(C)C)N(C)C)C(C)C`, the mutagenic call is “inactive; negative” under setting [1]; “inactive; negative” under setting [2]; “inactive; negative” under setting [3]; “inactive; negative” under setting [4]; “inactive; negative” under setting [5]; “inactive; negative” under setting [6]. The mutagenic call under setting [7] is “inactive; negative”; the mutagenic call under setting [8] was “inactive; negative”; the mutagenic call under setting [9] was “inactive; negative”; the mutagenic call under setting [10] was “inactive; negative”; the mutagenic call under setting [11] is “inactive; negative”; the mutagenic call under setting [12] is “inactive; negative”. Moreover, the mutagenic call (Test System: AMES SALMONELLA TYPHIMURIUM, Strain/Indicator: TA1538, Metabolic Activation: HAMSTER, LIVER, S-9, AROCLOR 1254, Method: STANDARD PLATE) was “inactive; negative”; the mutagenic call (Test System: AMES SALMONELLA TYPHIMURIUM, Strain/Indicator: TA1538, Metabolic Activation: NONE, Method: STANDARD PLATE) is “inactive; negative”; the mutagenic call (Test System: AMES SALMONELLA TYPHIMURIUM, Strain/Indicator: TA1538, Metabolic Activation: RAT, LIVER, S-9, AROCLOR 1254, Method: STANDARD PLATE) is “inactive; negative”; the mutagenic call under setting [13] was “active; positive. reevaluation of results: inconclusive”; the mutagenic call under setting [14] is “inactive; negative. reevaluation of results: negative”.
Regarding `CNC(=O)NC`, the mutagenic call runs as follows: (Test System: AMES SALMONELLA TYPHIMURIUM, Strain/Indicator: TA98, Metabolic Activation: NONE, Method: PREINCUBATION) “inactive; negative”; (Test System: AMES SALMONELLA TYPHIMURIUM, Strain/Indicator: TA98, Metabolic Activation: RAT, LIVER, S-9, AROCLOR 1254 (5, 15 OR 30%), Method: PREINCUBATION) “inactive; negative”; (Test System: AMES SALMONELLA TYPHIMURIUM, Strain/Indicator: TA100, Metabolic Activation: NONE, Method: PREINCUBATION) “inactive; negative”; (Test System: AMES SALMONELLA TYPHIMURIUM, Strain/Indicator: TA100, Metabolic Activation: RAT, LIVER, S-9, AROCLOR 1254 (5, 15 OR 30%), Method: PREINCUBATION) “inactive; negative”; (Test System: AMES SALMONELLA TYPHIMURIUM, Strain/Indicator: TA104, Metabolic Activation: NONE, Method: PREINCUBATION) “inactive; negative”; (Test System: AMES SALMONELLA TYPHIMURIUM, Strain/Indicator: TA104, Metabolic Activation: RAT, LIVER, S-9, AROCLOR 1254 (5, 15 OR 30%), Method: PREINCUBATION) “inactive; negative”. The mutagenic call is “inactive; negative” under setting [13] and “inactive; negative” under setting [14].
`Cc1cc(C)c2cc(C)c(N)cc2n1`: the mutagenic call (Test System: AMES SALMONELLA TYPHIMURIUM, Strain/Indicator: TA98, Method: STANDARD PLATE) is “active; positive”.
Turning to `OCc1ccc(F)cc1`, under setting [5], the mutagenic call was “inactive; negative”.
Turning to `CC(=O)OCN(C)[N+](=O)[O-]`, for the setting “Test System: AMES SALMONELLA TYPHIMURIUM, Strain/Indicator: TA100, Metabolic Activation: RAT, LIVER, S-9, AROCLOR 1254, Method: PREINCUBATION”, the mutagenic call is “active; positive”.
